For series [1] the following is noted: 24 hours after administration of the last dose; cited from earlier work.
A short description of series [2]: Evaporation (weight loss) of DEET/IPA/clay samples under nitrogen. It counts as physicochemical. The following applies: no added IPA, over 12 hours under nitrogen, relative to amount of DEET. On the procedure: The samples prepared above were held at room temperature in the hood under nitrogen over a 12 hour period. Evaporation rates were measured every hour.
Samples of the HDTMA clay/DEET/IPA matrix were mixed as illustrated in Example 1. Volatile components of the matrix were evaporated using a constant flow of nitrogen over 12 hours in fume hood. Control samples of DEET with IPA only and DEET alone were subjected to the same conditions as the DEET with HDTMA treated clay.
Weight loss of the samples over 12 hours was used as a measure of the extent of evaporation. Samples were weighed at the beginning of the experiment (time 0) and at hourly intervals thereafter. Reported values are the difference between the original weight of formulation and the weight at sampling time, expressed as a percentage of the amount of IPA added to each. For the controls without IPA, percent weight loss was calculated relative to the amount of DEET in the original sample.

Series [3] is described as follows: Visual (turbidity) solubility of DEET in IPA and water. It is filed as physicochemical. The following applies: aqueous with cosolvent or surfactant or cyclodextrin, thermodynamic from solid, read-out: limit of DEET solubility. On the procedure: Homogenous solutions of different concentrations of DEET with varying percentages of IPA in water were prepared and subsequently incorporated into the clay. Solutions of 30%, 40%, and 50% IPA in water were prepared. DEET was completely miscible with IPA, which was also completely miscible with water. The addition of DEET to the solvent mixture was therefore expected to produce a single homogenous phase within the limits of its solubility. Solutions were prepared consisting of the solvent systems and varying concentrations of DEET, from 12.5-200 mg/ml. DEET was added to the solvent in increments of 50 mg until the solution appeared turbid after vortexing for 5 seconds. Turbidity was used as a marker for saturation.
Once various solvents were mixed with DEET, turbidity of the samples was used as a marker for saturation. All DEET spiking solutions were below saturation point.

For series [4] the following is noted: within two hours of administration; cited from earlier work.

Values after ≈ are worked out from the molar mass of the structure shown. Read-outs that look alike come from different tables or passages of the source.

For `CCN(CC)C(=O)c1cccc(C)c1` [DEET, N,N-diethyl-m-toluamide], in series [1], the “absorbed dose recovered in the urine” value is ~90%. The molecule also displayed a weight loss in series [2] of 4%. Besides, the solubility at 5 seconds in series [3] (30% IPA in water, 30% IPA in water) is 115 mg/mL (≈ 601 mM); in series [3] (40% IPA in water, 40% IPA in water) it was 200 mg/mL (≈ 1050 mM); in series [3] (50% IPA in water, 50% IPA in water) it was 200 mg/mL (≈ 1050 mM). For the same molecule, the “dose administered topically that is absorbed” value in series [4] was “Approximately 17%”.

Usually solubility stands for the dissolved amount per volume that the medium holds.

Values taken from patent US20030161866A1, “Novel pharmaceutical formulation to limit or delay surface absorption” (priority 2000, published 2003).
